Test results as given in patent EP4755885A1 (Shanghai Hansoh Biomedical Co., Ltd., priority 2023, dated 2025).
Read-outs that look alike come from different tables or passages of the source.

Tests used:
[1] = Long-term administration, body weight and food intake of mice fed with CDAHFD high-fat diet; type: in vivo, GLP-1R humanized C57BL/6 mice
Description: The purpose of this assay was to evaluate the effects of long-term administration of the compound on the body weight and food intake of GLP-1R humanized C57BL/6 mice fed with CDAHFD high-fat diet.
C57BL/6_hGLP-1R, male, 5-8 weeks, purchased from Biocytogen Pharmaceuticals (Beijing) Co., Ltd. • Choline-deficient, L-amino acid-defined, high-fat diet (CDAHFD), purchased from Shanghai Bopai Biotechnology Co., Ltd. (Research diet-A06071302) • Ultra-clean bench (CJ-2F, Suzhou Fengshi Experimental Animal Equipment Co., Ltd. • Electronic balance (BSA2202S-CW, Sartorius)
• 3.1 On the day of starting feeding the high-fat diet, the C57BL/6 mice were randomly grouped according to body weight. The first group was Blank, with 7 mice, and was fed with normal control diet. The remaining animals were the modeling group, and were fed with the high-fat diet until the end of the experiment. • 3.2 In week 4 of CDAHFD feeding, the animals in the modeling group were randomly grouped according to body weight, with 7 mice in each group. The first group was Vehicle group (Vehicle: 10%PEG400/10%PG/80% glycine buffer (100 mM glycine, 26 mM NaOH, pH 9) buffer), and was administered solvent; the remaining group was administration group. Administration regime: the corresponding compound was orally administered for a period of 21 days, once each day, the administration dose being 0.3 mg/kg, 1 mg/kg, 3 mg/kg, and 10 mg/kg, and the administration volume being 10 mL/kg. The Blank group continued to be fed with the normal diet, and was orally administered solvent once each day. • 3.3 The day of administration was defined as Day 0. • 3.4 The animals were weighed at each administration and the data were recorded. Oral administration was performed according to body weight, and the administration volume was 10 mL/kg. • 3.5 Starting from day 0 of the experiment, the food intake of the mice in each group was measured every three days. Specifically, after each weighing and administration, the diet was renewed, and the added amount and remaining amount were recorded. • 3.6 On Day 21, the end day, all mice were euthanized sequentially according to grouping order. Plasma and tissues (liver, kidney, ileum, pancreas, and brain) were taken for PK determination, and serum was taken for blood biochemistry determination (ALT, AST, TG, TC, and LDL-C).
The body weight and body weight change rate of the mice after administration were summarized and statistically analyzed. The body weight change rate was calculated according to (BWt - BW0) / BW0 × 100%, where BWt represents mouse body weight on day t of the experiment, and BW0 represents mouse body weight on day 0 of the experiment.

[2] = biological target: T1, human GLP-1 receptor (Homo sapiens, UniProt P43220); test: cAMP production in cell line stably transformed with human GLP1 receptor, 30 min co-incubation (HTRF); type: cell-based; conditions: CHO-K1/GLP-1R/CRE-luc cells, stimulation for 0.5 h
T1 construct: expressed in transfected cells
T1 sequence (P43220 24-463): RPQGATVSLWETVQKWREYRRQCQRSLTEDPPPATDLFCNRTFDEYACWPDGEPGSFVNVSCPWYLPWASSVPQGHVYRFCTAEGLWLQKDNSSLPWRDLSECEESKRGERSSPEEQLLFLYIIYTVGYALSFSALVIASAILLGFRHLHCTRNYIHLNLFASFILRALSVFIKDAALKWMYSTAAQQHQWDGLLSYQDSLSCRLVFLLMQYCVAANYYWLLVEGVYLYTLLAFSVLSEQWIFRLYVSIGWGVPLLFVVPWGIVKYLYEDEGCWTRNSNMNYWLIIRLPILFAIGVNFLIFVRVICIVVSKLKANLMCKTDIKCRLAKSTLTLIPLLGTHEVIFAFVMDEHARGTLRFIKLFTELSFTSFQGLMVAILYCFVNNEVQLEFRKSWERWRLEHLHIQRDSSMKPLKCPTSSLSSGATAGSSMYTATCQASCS
Procedure: The purpose of this assay example is to test the ability of the compound to activate the human GLP-1 receptor on cell surface. The EC50 for stimulated cAMP production after activation characterizes the ability of the compound to activate the human GLP-1 receptor.
In this experiment, the compound and cells were co-incubated for 30 min.
Frozen cell line CHO-K1/GLP-1R/CRE-luc stably transformed with human GLP1 receptor was removed from a liquid nitrogen tank, and was placed in a 37°C water bath for rapid thawing. The cells were resuspended in DMEM/F12 medium, and after centrifugation, were washed once. The cells were resuspended in an experimental buffer, i.e., DMEM/F12 medium containing 0.1% casein. After centrifugation, cell density was adjusted using the experimental buffer. The cells were plated onto a 384-well plate at a density of 1500 cells/5 µL/well. Then, each well was added with 2.5 µL of IBMX working solution prepared with the buffer, the final concentration of IBMX being 0.5 mM, and 2.5 µL of a serially diluted compound sample (starting from […], 3-fold dilution, 12 concentrations). The plate was centrifuged at 1000 rpm for 1 min, and was stood for incubation at 37°C for 0.5 h. Determination was performed using the Cisbio cAMP - Gs Dynamic kit. cAMP-d2 and anti-cAMP-Eu3+-Cryptate were diluted 18-fold and 20-fold respectively with cAMP Lysis & Detection Buffer, and were respectively mixed homogeneously. Each well was added with 5 µL of diluted cAMP-d2 solution, and the plate was centrifuged at 1000 rpm for 1 min, and shaken for 30 seconds for homogeneous mixing. Then, each well was added with 5 µL of diluted anti-cAMP-Eu3+-Cryptate solution, and the plate was centrifuged at 1000 rpm for 1 min and was incubated in the dark at room temperature for 1 h. HTRF signals were read using the Biotek Synergy H1 microplate reader, the excitation wavelength being 320 nm and the emission wavelengths being 620 nm and 665 nm.
The signal-to-signal ratio was calculated (665 nm/620 nm * 10,000). Nonlinear fitting between the signal-to-signal ratio and the sample concentration was performed in GraphPad Prism 10 using a four-parameter equation to obtain the EC50 value.

[3] = Pharmacokinetic evaluation in Macaca fascicularis monkeys, oral administration; type: in vivo; conditions: cynomolgus monkey, p.o. 5 mg/kg, plasma; for MRT inf: read-out: MRT 0-∞
Procedure: Macaca fascicularis monkeys were used as test animals to study the pharmacokinetic behavior of the compound of the present invention, administered orally at a dose of 5 mg/kg, in Macaca fascicularis monkeys (plasma).
Macaca fascicularis monkeys, 3 per group, male.
Preparation of drug for oral administration: 10%PEG400/10%PG/80% glycine buffer (100 mM glycine, 64 Mm NaOH, […]) buffer.
Single PK: The compound of the present invention was weighed into a 100 mL glass bottle, and the solution was added. The pH was first adjusted with 1 M NaOH until the compound dissolves to obtain a clear solution, and then the pH was readjusted to pH 9.0-9.5 with 1 M HCl. Sonication was performed for 10 min to obtain a colorless clear solution having a concentration of 1 mg/mL.
Three Macaca fascicularis monkeys, male, respectively administered p.o. after fasting overnight, at a dose of 5 mg/kg and in an administration volume of 5 mL/kg.
Blood collection: 0.3 mL of blood was collected from the forelimb vein of the Macaca fascicularis monkeys before administration and at 0.25, 0.5, 1, 2, 4, 6, 8, and 24 h after administration. The blood samples were placed in EDTA-K2 anticoagulant tubes and centrifuged at 6000 rpm at 4°C for 6 min to separate plasma, which was stored at -80°C. The Macaca fascicularis monkeys were fed 4 h after administration.
• 1) 40 µL of a plasma sample was added with 160 µL of acetonitrile for precipitation, and after mixing, the mixture was centrifuged at 3500 × g for 5 to 20 min. • 2) The supernatant solution after treatment was taken for LC/MS/MS analysis of the concentration of the test compound. The LC/MS/MS analysis instrument was AB Sciex API 4000 Qtrap.
• Liquid phase condition: Shimadzu LC-20AD pump • Chromatographic column: Agilent ZORBAX XDB-C18 (50×2.1 mm, 3.5 µm) Mobile phase: Solution A was 0.1% formic acid aqueous solution, and Solution B was acetonitrile • Flow rate: 0.4 mL/min • Elution time: 0-4.0 min, the eluent was as follows: […]

[4] = 3 mg/kg orally once each day for 21 days

In the case of `CC#C[C@H]1C[C@]1(c1noc(=O)[nH]1)n1c(C(=O)N2CCc3nn(-c4cc(C)c(F)c(C)c4)c(-n4ccn(-c5ccc6c(cnn6C6CC6)c5F)c4=O)c3[C@@H]2C)cc2cc([C@H]3CCOC(C)(C)C3)ccc21` [Example 144, 3-((1S,2R)-1-(2-((S)-3-(3-(1-cyclopropyl-4-fluoro-1H-indazole-5-yl)-2-carbonyl-2,3-dihydro-1H-imidazole-1-yl)-2-(4-fluoro-3,5-dimethylphenyl)-4-methyl-4,5,6,7-tetrahydro-2H-pyrazolo[4,3-c]pyridin-5-carbonyl)-5-((S)-2,2-dimethyltetrahydro-2H-pyrano-4-yl)-1H-indole-1-yl)-2-(propyl-1-alkynyl-1-yl)cyclopropyl)-1,2,4-oxadiazol-5(4H)-one], the “Body weight change (%)-” value ([1]; 0.3mg/kg orally once each day for 21 days) is reported as -10.40%, the “Body weight change (%)-” value ([1]; 1 mg/kg orally once each day for 21 days) is reported as -14.70% and the EC50 ([2]; read-out: EC50) is reported as 1 nM.

Work on `[2H]C([2H])([2H])n1nc2c3c(c(-n4ccn(-c5c6c(nn5-c5cc(C)c(F)c(C)c5)CCN(C(=O)c5cc7cc([C@H]8CCOC(C)(C)C8)ccc7n5[C@@]5(c7noc(=O)[nH]7)C[C@@H]5C)[C@H]6C)c4=O)ccc31)OCCC2` [Example 282, 3-((1S,2S)-1-(5-((S)-2,2-dimethyltetrahydro-2H-pyran-4-yl)-2-((S)-2-(4-fluoro-3,5-dimethylphenyl)-4-methyl-3-(3-(2-(methyl-d3)-2,7,8,9-tetrahydrooxaheptano[4,3,2-cd]indazol-5-yl)-2-carbonyl-2,3-dihydro-1H-imidazol-1-yl)-4,5,6,7-tetrahydro-2H-pyrazolo[4,3-c]pyridine-5-carbonyl)-1H-indol-1-yl)-2-methylcyclopropyl)-1,2,4-oxadiazol-5(4H)-one] yielded an AUC(0-inf) [3] of 17000 ng·h/mL, an AUC(0-t) [3] of 7560 ng·h/mL and a Cmax [3] of 570 ng/mL. It also gave a Tmax [3] of 4 h, a half-life [3] of 47.6 h and an MRT inf [3] of 68.9 h.

With `C#C[C@H]1C[C@]1(c1noc(=O)[nH]1)n1c(C(=O)N2CCc3nn(-c4cc(C)c(F)c(C)c4)c(-n4ccn(-c5ccc6c(cnn6C6CC6)c5F)c4=O)c3[C@@H]2C)cc2cc([C@H]3CCOC(C)(C)C3)ccc21` [Example 143] the “Body weight change (%)-” value [1, 4] was -19.43%, the AUC(0-inf) ([3]; male) was 26200 ng·h/mL and the AUC(0-t) ([3]; male) was 26000 ng·h/mL. For the same molecule, the Cmax ([3]; male) was 4040 ng/mL, the Tmax ([3]; male) was 2.7 h and the half-life ([3]; male) was 3.2 h. For the same molecule, the MRT inf ([3]; male) was 5.1 h.

With `Cc1cc(-n2nc3c(c2-n2ccn(-c4ccc5c(cnn5C5CC5)c4F)c2=O)[C@H](C)N(C(=O)c2cc4cc([C@H]5CCOC(C)(C)C5)ccc4n2[C@@]2(c4noc(=O)[nH]4)C[C@@H]2COC2CC2)CC3)cc(C)c1F` [Example 67] the “Body weight change (%)-” value [1, 4] was -20.34% and the EC50 [2] was 1.4 nM.
